Laboratory results from patent US11197840B2, “Methods of treating or alleviating mental disorders and associated symptoms” (The Florey Institute of Neuroscience and Mental Health, priority 2015, dated 2021).

How the values were obtained:
male ArKO mice = test: Behavioural disturbances of male ArKO mice (wheel running, compulsive grooming); assay type: in vivo, mouse; settings: administration to male ArKO mice; general statement
Protocol: Specifically, the grooming activity of each animal was analysed for 20 min after administration of water mist spray (a trigger for grooming). […] Compulsive grooming observed in ArKO represents an OCD-like repetitive behavioural disturbance in OCD-patients.

[1] = test system: 5-hydroxytryptamine (serotonin) receptor 2C; test: Next Generation Sequencing (RNAseq) of primary cortical neurons: 5-hydroxytryptamine receptor 2C transcript; assay type: cell-based, mouse; settings: 1 mM 10-HDA vs DMSO, primary cortical neurons of C57Black 6 mice, harvested Day 7
Protocol: (§1) Foetal cortices of C57Black 6 mice (gestational days 15) were micro-dissected and subjected to trypsin digestion and mechanical trituration and centrifugation. The pelleted cells were resuspended in Neurobasal™ medium (NBM) containing 2.5% B-27 supplement, 1% penicillin, 1% streptomycin, 0.25% GlutaMAX-1 supplement and 10% dialysed foetal calf serum. Cells were seeded on poly-d-lysine (100 μg/ml) coated 12-well plates to a density of […]. Cultures were maintained at 37° C. in a humidified 5% CO2 and 95% air incubator and were subsequently cultured after day 1 in serum-free medium. After 24 hours, primary cortical neurons were treated with DMSO or 1 mM 10-HDA, and harvested for total RNA preparation on Day 7 for subsequent Next Generation Sequencing (RNAseq). […]
(§2) Total RNA was extracted from each sample using the PARIS kit (Ambion). The quality of RNA was assessed by LabChip® (Perkin Elmer). […] The libraries were sequenced with 50 bp single end reads using Illumina Hiseq and subjected to bioinformatic analyses. Sequencing data were assessed (FastQC) and aligned to mouse genome using Subjunc aligner within the Subread package. Sequencing data was summarised into Reads per transcript using Feature counts and the Gencode gene models for the mouse genome build. […]

[2] = test system: male ArKO (aromatase knockout) mice; test: Water mist spray triggered grooming in male ArKO mice treated with 10-HDA; assay type: in vivo, mouse
Protocol: Specifically, male 3 month-old ArKO mice (n=5) were injected daily with 10-HDA (500 μg/kg) for 1 week. Similarly to Example 1 (see above), water mist spray triggered grooming was assessed before and after administration of 10-HDA treatment. During grooming assessment, each mouse was subjected to two squirts of sterile water mist spray and its grooming activity was recorded for 10 min immediately after the mist spray. Grooming duration was analyzed statistically by paired t test. […] Further grooming assessment was performed 5 days after the last administration of 10-HDA.

dynamin 3 = test: Next Generation Sequencing (RNAseq) of primary cortical neurons: dynamin 3 transcript; assay type: cell-based, mouse; settings: 1 mM 10-HDA vs DMSO, primary cortical neurons of C57Black 6 mice, harvested Day 7
Protocol: as §1, §2

SMILES: O=C(O)C=CCCCCCCCO [10-HDA, 10-hydroxy-2-decenoic acid]
- behavioural disturbances, including wheel running and/or compulsive grooming (male ArKO mice): alleviated one or more of the behavioural disturbances
- transcript expression level of 5-hydroxytryptamine (serotonin) receptor 2C [1]: significantly upregulated
- grooming duration after the withdrawal period ([2]; 5 days after the last administration of 10-HDA, male ArKO mice): return to pre-treatment levels
- duration of grooming after administration of 10-HDA ([2]; male 3 month-old ArKO mice, 500 μg/kg injected daily for 1 week, 10 min after water mist spray, before vs after treatment, paired t test p=0.0363): significant reduction
- transcript expression level of dynamin 3 (dynamin 3): significantly upregulated
